Reference: paper PMC9186491, “Novel Small Molecule Tyrosine Kinase 2 Pseudokinase Ligands Block Cytokine-Induced TYK2-Mediated Signaling Pathways” (Frontiers in Immunology, 2022)
≈ marks a conversion by molar mass, not a printed value. Where “and” joins values, the source holds several entries; their conditions need not be identical. Equal entries are not always repeated. Where two headings read alike, the source gives them in different places.

Experiments:
LM T1/2, M = format: in vitro ADME; conditions: mouse, liver microsomes
[1] = target: T1, TYK2 JH2 pseudokinase domain (Homo sapiens, UniProt P29597); assay: KdELECT competition binding assay, TYK2 JH2; conditions: isolated TYK2 JH2 domain
T1 construct: purchased Eurofins DiscoverX Corporation (contract assay)
Method: (§1) The KdELECT competition assays were performed to test the binding affinity of compounds to the JH1 kinase region or JH2 pseudokinase region in TYK2 or JAK by ligand competition with JH1 or JH2 protein segments. The assay was carried out at Eurofins DiscoverX Corporation following the established standard protocol (DiscoverX, San Diego, CA). In this assay, compounds that bind to the kinase or pseudokinase protein regions prevent the protein binding to the immobilized ligand and reduce the amount of kinase matter captured on the solid surface. […] Dissociation constants (Kds) for test compound-kinase interactions are calculated by measuring the amount of kinase captured on the solid support as a function of the test compound concentration. […] The ligated beads were blocked with excess biotin and washed with blocking buffer to remove unbound ligand and to reduce nonspecific binding. […] All reactions were performed in polypropylene 384-well plates with a final volume of 20 μL. […] The beads were then re-suspended in the elution buffer and incubated at room temperature with shaking for 30 minutes. The kinase concentration in the eluant was measured by qPCR. Two replicates were performed and averaged to obtain the Kd measurement.

LM T1/2, D = format: in vitro ADME; conditions: dog, liver microsomes
LM T1/2, Mk = format: in vitro ADME; conditions: monkey, liver microsomes
Solubility (PBS/Fas/Fes) = format: physicochemical
JAK2 = JAK2 (Homo sapiens, UniProt O60674); assay: Z'LYTE JAK kinase inhibition assay, JAK2; format: biochemical; conditions: read-out: JAK Catalytic Selectivity (IC50) JAK2
PPB, R = format: in vitro ADME; conditions: rat, plasma
JAK1 = JAK1 (Homo sapiens, UniProt P23458); assay: Z'LYTE JAK kinase inhibition assay, JAK1; format: biochemical; conditions: read-out: JAK Catalytic Selectivity (IC50) JAK1
JAK1 JH1 kinase domain = target: T2, JAK1 JH1 kinase domain (Homo sapiens, UniProt P23458); assay: KdELECT competition binding assay, JAK1 JH1; conditions: read-out: JAK Binding Selectivity (Kd) Catalytical Domain (JH1) JAK1
T2 construct: purchased Eurofins DiscoverX Corporation (contract assay)
Method: as §1

[2] = tested on: IFNα-induced CXCL10 production in human whole blood; assay: IFNα-induced CXCL10 production in human whole blood; format: cell-based; conditions: human whole blood, IFNα 16 hours; read-out: TYK2-associated IFNα-induced-CXCL10 Production in Human Whole Blood: IC50
Method: Human whole blood [drawn with Ethylenediaminetetraacetic acid (EDTA) as anti-coagulant] was obtained from Zen-Bio Inc. (Durham, NC). […] The plasma was collected for detection of C-X-C motif chemokine 10 (CXCL10, IP10) secretion. CXCL10 was measured by Human CXCL10/IP-10 AlphaLISA Kit (PerkinElmer, #AL259 C/F) according to the manufacturer’s instructions.

hERG = hERG (Homo sapiens, UniProt Q12809); assay: hERG IC50
[3] = FaSSIF, read-out: Solubility, Fas
[4] = FeSSIF (Fes [sic]), fessif, read-out: Solubility, Fes
[5] = PBS, aqueous buffer, read-out: Solubility, PBS

T1 sequence (P29597 589-875 limits assumed): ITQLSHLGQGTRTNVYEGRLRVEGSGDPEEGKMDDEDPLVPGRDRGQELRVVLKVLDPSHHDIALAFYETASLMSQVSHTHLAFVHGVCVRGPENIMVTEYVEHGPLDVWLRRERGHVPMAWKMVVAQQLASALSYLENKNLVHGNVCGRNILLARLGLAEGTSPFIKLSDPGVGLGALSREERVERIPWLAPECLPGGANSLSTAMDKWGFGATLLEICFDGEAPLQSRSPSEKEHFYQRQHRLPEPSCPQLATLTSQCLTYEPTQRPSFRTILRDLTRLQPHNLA
T2 sequence (P23458 875-1153 limits assumed): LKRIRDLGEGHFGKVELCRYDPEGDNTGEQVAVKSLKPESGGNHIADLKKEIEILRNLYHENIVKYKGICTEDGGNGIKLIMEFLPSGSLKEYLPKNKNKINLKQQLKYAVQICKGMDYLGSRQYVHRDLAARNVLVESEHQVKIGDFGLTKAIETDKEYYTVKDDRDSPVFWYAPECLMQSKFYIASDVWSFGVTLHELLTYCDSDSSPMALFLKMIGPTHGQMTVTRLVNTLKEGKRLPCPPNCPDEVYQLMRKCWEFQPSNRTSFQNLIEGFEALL
Chain of JAK2 (O60674 whole entry): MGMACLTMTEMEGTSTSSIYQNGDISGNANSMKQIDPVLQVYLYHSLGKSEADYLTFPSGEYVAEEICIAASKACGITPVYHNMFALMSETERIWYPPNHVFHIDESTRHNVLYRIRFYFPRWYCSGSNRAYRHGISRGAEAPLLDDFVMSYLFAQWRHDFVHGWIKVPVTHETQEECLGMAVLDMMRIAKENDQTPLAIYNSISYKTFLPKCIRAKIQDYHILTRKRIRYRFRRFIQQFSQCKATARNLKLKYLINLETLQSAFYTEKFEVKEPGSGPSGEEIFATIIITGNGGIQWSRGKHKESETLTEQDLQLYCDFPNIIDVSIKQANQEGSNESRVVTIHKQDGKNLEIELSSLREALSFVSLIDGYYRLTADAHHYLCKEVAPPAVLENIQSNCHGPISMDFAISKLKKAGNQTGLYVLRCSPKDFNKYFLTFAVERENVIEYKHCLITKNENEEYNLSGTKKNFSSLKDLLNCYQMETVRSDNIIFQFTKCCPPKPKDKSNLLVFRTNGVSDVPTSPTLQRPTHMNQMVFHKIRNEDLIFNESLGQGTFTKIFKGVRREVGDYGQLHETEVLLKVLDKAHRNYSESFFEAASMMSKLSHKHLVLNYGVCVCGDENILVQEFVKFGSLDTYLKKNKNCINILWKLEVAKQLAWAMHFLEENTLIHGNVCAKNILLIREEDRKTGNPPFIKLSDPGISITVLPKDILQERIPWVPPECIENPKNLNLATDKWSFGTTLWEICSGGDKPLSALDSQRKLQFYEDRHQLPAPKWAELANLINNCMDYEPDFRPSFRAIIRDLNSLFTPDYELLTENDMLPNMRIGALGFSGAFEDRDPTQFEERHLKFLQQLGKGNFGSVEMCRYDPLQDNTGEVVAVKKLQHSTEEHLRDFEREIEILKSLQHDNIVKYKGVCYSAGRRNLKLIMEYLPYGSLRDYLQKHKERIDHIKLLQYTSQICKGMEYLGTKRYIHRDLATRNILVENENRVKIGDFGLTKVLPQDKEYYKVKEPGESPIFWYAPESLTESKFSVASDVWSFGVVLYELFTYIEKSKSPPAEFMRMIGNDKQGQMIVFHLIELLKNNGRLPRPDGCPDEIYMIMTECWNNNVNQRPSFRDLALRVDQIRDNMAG
Chain of JAK1 (P23458 whole entry, the tested form may be a part): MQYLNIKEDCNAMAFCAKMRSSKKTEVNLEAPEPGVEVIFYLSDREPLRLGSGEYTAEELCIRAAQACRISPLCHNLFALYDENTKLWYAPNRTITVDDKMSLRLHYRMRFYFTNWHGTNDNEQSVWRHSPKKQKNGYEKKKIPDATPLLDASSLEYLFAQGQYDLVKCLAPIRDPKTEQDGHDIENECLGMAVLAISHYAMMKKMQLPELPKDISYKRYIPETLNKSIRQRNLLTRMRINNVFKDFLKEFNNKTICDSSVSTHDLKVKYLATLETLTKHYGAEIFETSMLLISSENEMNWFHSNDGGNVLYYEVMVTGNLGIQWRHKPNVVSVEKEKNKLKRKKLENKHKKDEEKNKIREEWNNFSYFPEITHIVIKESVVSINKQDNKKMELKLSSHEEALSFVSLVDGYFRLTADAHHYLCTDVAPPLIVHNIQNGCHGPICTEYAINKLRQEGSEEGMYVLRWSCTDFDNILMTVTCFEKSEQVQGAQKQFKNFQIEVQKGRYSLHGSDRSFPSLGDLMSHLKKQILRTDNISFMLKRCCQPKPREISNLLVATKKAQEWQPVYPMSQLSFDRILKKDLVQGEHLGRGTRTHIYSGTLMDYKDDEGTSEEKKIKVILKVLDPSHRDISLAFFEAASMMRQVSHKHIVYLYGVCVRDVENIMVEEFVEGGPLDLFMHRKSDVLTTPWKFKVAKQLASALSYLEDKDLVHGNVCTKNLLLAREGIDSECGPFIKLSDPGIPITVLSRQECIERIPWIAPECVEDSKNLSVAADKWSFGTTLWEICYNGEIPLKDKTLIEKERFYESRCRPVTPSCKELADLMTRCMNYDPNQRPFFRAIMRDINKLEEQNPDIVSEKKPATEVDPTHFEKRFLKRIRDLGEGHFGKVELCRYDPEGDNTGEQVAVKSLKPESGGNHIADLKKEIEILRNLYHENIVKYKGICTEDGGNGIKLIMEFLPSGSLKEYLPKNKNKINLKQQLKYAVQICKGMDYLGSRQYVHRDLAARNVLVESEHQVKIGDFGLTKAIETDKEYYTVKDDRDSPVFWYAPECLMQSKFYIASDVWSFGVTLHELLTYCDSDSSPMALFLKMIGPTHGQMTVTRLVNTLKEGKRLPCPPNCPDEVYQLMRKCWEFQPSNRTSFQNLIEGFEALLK
Chain of hERG (Q12809 whole entry): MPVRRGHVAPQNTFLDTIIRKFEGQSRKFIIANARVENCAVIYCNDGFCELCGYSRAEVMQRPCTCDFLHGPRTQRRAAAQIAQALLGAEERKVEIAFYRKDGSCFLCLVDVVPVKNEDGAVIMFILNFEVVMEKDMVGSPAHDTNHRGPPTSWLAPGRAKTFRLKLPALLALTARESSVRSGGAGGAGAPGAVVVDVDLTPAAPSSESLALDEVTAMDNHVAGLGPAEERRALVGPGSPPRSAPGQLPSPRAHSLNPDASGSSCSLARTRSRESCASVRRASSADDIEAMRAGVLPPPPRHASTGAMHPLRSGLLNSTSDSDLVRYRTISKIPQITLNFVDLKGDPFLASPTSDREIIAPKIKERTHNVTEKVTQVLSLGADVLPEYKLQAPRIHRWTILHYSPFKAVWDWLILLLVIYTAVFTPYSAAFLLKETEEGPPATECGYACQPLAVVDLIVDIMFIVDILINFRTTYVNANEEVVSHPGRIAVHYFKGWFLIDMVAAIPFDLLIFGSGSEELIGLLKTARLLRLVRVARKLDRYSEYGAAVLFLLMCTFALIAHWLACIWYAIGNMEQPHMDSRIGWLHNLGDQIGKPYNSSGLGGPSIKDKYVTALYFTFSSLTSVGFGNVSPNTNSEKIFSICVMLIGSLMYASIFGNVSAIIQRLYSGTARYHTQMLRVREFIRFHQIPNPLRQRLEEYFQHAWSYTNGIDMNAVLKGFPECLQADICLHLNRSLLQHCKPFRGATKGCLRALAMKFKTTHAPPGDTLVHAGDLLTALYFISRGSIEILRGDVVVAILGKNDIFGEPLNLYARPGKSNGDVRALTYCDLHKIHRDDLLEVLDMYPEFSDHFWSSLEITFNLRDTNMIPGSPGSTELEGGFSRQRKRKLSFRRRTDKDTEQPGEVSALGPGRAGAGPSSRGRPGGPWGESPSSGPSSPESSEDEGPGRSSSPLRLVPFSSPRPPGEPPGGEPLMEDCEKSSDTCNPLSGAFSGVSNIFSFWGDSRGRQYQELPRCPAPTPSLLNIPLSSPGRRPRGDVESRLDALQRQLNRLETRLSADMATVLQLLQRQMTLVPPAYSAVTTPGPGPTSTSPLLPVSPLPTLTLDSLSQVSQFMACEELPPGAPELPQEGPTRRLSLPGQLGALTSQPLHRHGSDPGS

SMILES	half-life (LM T1/2, M) [min]	Kd [1]	half-life (LM T1/2, D) [min]	half-life (LM T1/2, Mk) [min]	solubility (Solubility (PBS/Fas/Fes); [3]) [µM]	solubility (Solubility (PBS/Fas/Fes); [4]) [µM]	solubility (Solubility (PBS/Fas/Fes); [5]) [µM]	IC50 (JAK2) [nM]	fraction unbound (PPB, R)	IC50 (JAK1) [nM]	Kd (JAK1 JH1 kinase domain) [nM]	IC50 [2] [nM]	IC50 (hERG) [nM]
CNC(=O)c1nnc(NC(=O)C2CC2)c2[nH]c(-c3ccc(N)cc3OC)cc12 [SHR2396]	31	0.029 nM and 0.019 nM	> 139	50	8.6 (≈ 3.27 µg/mL)	8.2 (≈ 3.12 µg/mL)	0.34 (≈ 0.129 µg/mL)	> 10000	0.0474	> 10000	> 20000		
CNC(=O)c1nnc(NC(=O)N2CCC2)cc1Nc1cccc(-c2ncn(C)n2)c1OC [SHR8751]	> 139	0.032 nM	> 139	> 99	60.7 (≈ 26.6 µg/mL)	60.9 (≈ 26.6 µg/mL)	17.6 (≈ 7.7 µg/mL)	> 10000	0.329	> 10000	> 20000	460	> 30000
[2H]C([2H])([2H])NC(=O)c1nnc(NC(=O)N2CCC2)cc1Nc1cccc(-c2ncn(C)n2)c1OC [SHR9332]	49.8	0.04 nM	46.5	30.9	71.4 (≈ 31.5 µg/mL)	108 (≈ 47.6 µg/mL)	25.6 (≈ 11.3 µg/mL)	> 10000	0.254	> 10000	> 20000	480	> 30000
